23 molecules from US12037345B2, “Heterobicyclic compounds for inhibiting the activity of SHP2” (TAIHO PHARMACEUTICAL CO., LTD., priority 2018, dated 2024) can be followed below.

One experiment deals with SHP2 (Homo sapiens (Human), UniProt Q06124). The experiment is described as follows: SHP2 Biochemical Assay (DiFMUP conversion, pIRS1-activated). Summed up: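 Human SHP2 (10 pM) pre-incubated 30 min with compound and […] pIRS1 activating peptide, then 50 μM DiFMUP added; buffer 25 mM Bis-Tris propane pH 7.0, 150 mM NaCl, 5% DMSO. Fluorescence rate (ex 360/em 450 nm) over 30 min; IC50 by four-parameter fit, averaged across experiments.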
SHP2, sequence (Q06124 whole entry): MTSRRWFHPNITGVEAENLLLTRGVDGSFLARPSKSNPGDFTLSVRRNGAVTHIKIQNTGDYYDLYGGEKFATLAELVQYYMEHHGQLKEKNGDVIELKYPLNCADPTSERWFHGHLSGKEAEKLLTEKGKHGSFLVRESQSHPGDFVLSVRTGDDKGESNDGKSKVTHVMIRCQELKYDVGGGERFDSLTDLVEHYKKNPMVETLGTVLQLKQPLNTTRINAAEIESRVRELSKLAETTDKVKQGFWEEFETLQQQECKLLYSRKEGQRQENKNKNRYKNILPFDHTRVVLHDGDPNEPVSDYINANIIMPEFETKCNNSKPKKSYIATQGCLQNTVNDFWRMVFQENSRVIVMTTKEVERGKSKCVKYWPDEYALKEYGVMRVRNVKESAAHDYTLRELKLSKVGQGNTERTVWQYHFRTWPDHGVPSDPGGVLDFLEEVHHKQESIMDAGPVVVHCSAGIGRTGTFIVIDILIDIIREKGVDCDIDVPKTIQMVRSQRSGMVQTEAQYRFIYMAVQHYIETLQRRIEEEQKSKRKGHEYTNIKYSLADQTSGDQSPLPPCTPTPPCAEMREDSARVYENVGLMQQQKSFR

In experiment [1] the test system is pERK (phospho-p44/42 ERK) in HCC827 cells. Description: Cellular pERK Inhibition Assay, Method A (In-Cell Western). It is filed as cell-based. Particulars: Homo sapiens. Summed up: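 HCC827 cells in RPMI/10% FBS were treated with compounds in serum-free medium (0.2% DMSO final) at 37 °C for the indicated time, in quadruplicate. Fixed cells were immunostained for phospho-p44/42 ERK and read by infrared imaging. Blank-subtracted signal was expressed as % of DMSO control; IC50 from four-parameter logistic fit, averaged across experiments.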

Setting [2] is: Table 19, head prints unit as "-M".
[3] abbreviates: Table 19, head prints unit as "-M", read-out: pERK (IC50) Method A.
Where [4] appears, read: Table 20, read-out: pERK (IC50, μM) Method A.

In general, IC50 refers to the concentration that gives 50% inhibition.

Where two headings read alike, the source gives them in different places.

Take `Cc1nc2ccc(-c3c[nH]c4nc(N5C6CCC5CNC6)n(C)c(=O)c34)c(Cl)c2s1` [Example 90, 2-(3,8-diazabicyclo[3.2.1]octan-8-yl)-5-(7-chloro-2-methylbenzo[d]thiazol-6-yl)-3-methyl-3,7-dihydro-4H-pyrrolo[2,3-d]pyrimidin-4-one]: the values for the IC50 (on SHP2 (setting [2]); in experiment [1] (setting [3])) were 12 nM and 0.74 µM, respectively.
The matching figures for `CN[C@@H]1C[C@@H]2CC[C@H]1N2c1nc2[nH]cc(-c3ccc4nn(C)cc4c3Cl)c2c(=O)n1C` [Example 97, 5-(4-chloro-2-methyl-2H-indazol-5-yl)-3-methyl-2-((1R,2R,4S)-2-(methylamino)-7-azabicyclo[2.2.1]heptan-7-yl)-3,7-dihydro-4H-pyrrolo[2,3-d]pyrimidin-4-one]: 7.7 nM and 0.082 µM.
`Cn1cc2c(Cl)c(-c3c[nH]c4nc(N5C6COCC5CC(N)C6)n(C)c(=O)c34)ccc2n1` (stereo not shown) [Example 22, 2-(7-amino-3-oxa-9-azabicyclo[3.3.1]nonan-9-yl)-5-(4-chloro-2-methyl-2H-indazol-5-yl)-3-methyl-3,7-dihydro-4H-pyrrolo[2,3-d]pyrimidin-4-one]: the values for the IC50 (against SHP2 (setting [2]); in experiment [1] (setting [3])) were 14 nM and 2.2 µM, respectively.
As for `Cn1cc2c(Cl)c(-c3c[nH]c4nc(N5CC6CC5CC6N)n(C)c(=O)c34)ccc2n1` (stereo not shown) [Example 35, 2-(5-amino-2-azabicyclo[2.2.1]heptan-2-yl)-5-(4-chloro-2-methyl-2H-indazol-5-yl)-3-methyl-3,7-dihydro-4H-pyrrolo[2,3-d]pyrimidin-4-one], the IC50 against SHP2 (setting [2]) was determined as 38 nM; in experiment [1] (setting [3]), 1 µM.
In the case of `Cn1cc2c(Cl)c(-c3c[nH]c4nc(N5CCNCC5)n(C)c(=O)c34)ccc2n1` [Example 39, 5-(4-chloro-2-methyl-2H-indazol-5-yl)-3-methyl-2-(piperazin-1-yl)-3,7-dihydro-4H-pyrrolo[2,3-d]pyrimidin-4-one], the figures for the 50% inhibitory concentration (IC50) (against SHP2 (setting [2]); in experiment [1] (setting [3])) were 66 nM and 0.7 µM, respectively.
On the same counts, the results for `Cn1cc2c(Cl)c(-c3c[nH]c4nc(N5C[C@H]6C[C@@H](C5)[C@@H]6N)n(C)c(=O)c34)ccc2n1` [Example 33, 2-(exo-6-amino-3-azabicyclo[3.1.1]heptan-3-yl)-5-(4-chloro-2-methyl-2H-indazol-5-yl)-3-methyl-3,7-dihydro-4H-pyrrolo[2,3-d]pyrimidin-4-one] are 47 nM and 0.48 µM.
In the case of `Cn1c(N2[C@H]3CC[C@@H]2[C@H](N)C3)nc2[nH]cc(-c3ccc4nn(CF)c(Cl)c4c3Cl)c2c1=O` [Example 103, 2-((1R,2R,4S)-2-amino-7-azabicyclo[2.2.1]heptan-7-yl)-5-(3,4-dichloro-2-(fluoromethyl)-2H-indazol-5-yl)-3-methyl-3,7-dihydro-4H-pyrrolo[2,3-d]pyrimidin-4-one], the values for the IC50 (against SHP2 (setting [2]); in experiment [1] (setting [3])) were 2 nM and 0.026 µM, respectively.
Consider `CC(C)N[C@@H]1C[C@@H]2CC[C@H]1N2c1nc2[nH]nc(-c3ccc4nn(C)c(Cl)c4c3Cl)c2c(=O)n1C` [Example 179, 3-(3,4-Dichloro-2-methyl-2H-indazol-5-yl)-6-((1R,2R,4S)-2-(isopropylamino)-7-azabicyclo[2.2.1]heptan-7-yl)-5-methyl-1,5-dihydro-4H-pyrazolo[3,4-d]pyrimidin-4-one], for which the values for the IC50 (on SHP2 (Table 20); in experiment [1] (setting [4])) were 150 nM and 2.1 µM, respectively.
Consider `CN(C)C(=O)CCn1cc2c(Cl)c(-c3c[nH]c4nc(N5C6CCC5CNC6)n(C)c(=O)c34)ccc2n1` [Example 88, 3-(5-(2-(3,8-diazabicyclo[3.2.1]octan-8-yl)-3-methyl-4-oxo-4,7-dihydro-3H-pyrrolo[2,3-d]pyrimidin-5-yl)-4-chloro-2H-indazol-2-yl)-N,N-dimethylpropanamide], for which the results for the concentration for half-maximal inhibition (IC50) (against SHP2 (setting [2]); in experiment [1] (setting [3])) were 52 nM and 4.5 µM, respectively.
The matching figures for `C[C@@H]1CN(c2nc3[nH]cc(-c4ccc5nn(C)cc5c4Cl)c3c(=O)n2C)C[C@@H]1N` [Example 56, 2-((3R,4R)-3-amino-4-methylpyrrolidin-1-yl)-5-(4-chloro-2-methyl-2H-indazol-5-yl)-3-methyl-3,7-dihydro-4H-pyrrolo[2,3-d]pyrimidin-4-one]: 73 nM and 1.1 µM.
Regarding `Cn1cc2c(Cl)c(-c3c[nH]c4nc(N5[C@@H]6CC[C@H]5C[C@H](N)C6)n(C)c(=O)c34)ccc2n1` [Example 10, 2-(exo-3-amino-8-azabicyclo[3.2.1]octan-8-yl)-5-(4-chloro-2-methyl-2H-indazol-5-yl)-3-methyl-3,7-dihydro-4H-pyrrolo[2,3-d]pyrimidin-4-one], the concentration for half-maximal inhibition (IC50) worked out at 8.5 nM against SHP2 (setting [2]) and 0.17 µM in experiment [1] (setting [3]).
With `Cn1cc2c(Cl)c(-c3c[nH]c4nc(N5CC[C@H](CN)C5)n(C)c(=O)c34)ccc2n1` [Example 60, (R)-2-(3-(aminomethyl)pyrrolidin-1-yl)-5-(4-chloro-2-methyl-2H-indazol-5-yl)-3-methyl-3,7-dihydro-4H-pyrrolo[2,3-d]pyrimidin-4-one], the IC50 amounted to 82 nM at SHP2 (setting [2]) and 3.8 µM in experiment [1] (setting [3]).
Turning to `Cn1cc2c(Cl)c(-c3c[nH]c4nc(N5[C@@H]6CC[C@H]5[C@@H](N)C6)n(C)c(=O)c34)ccc2n1` [Example 46, 2-((1S,2S,4R)-2-amino-7-azabicyclo[2.2.1]heptan-7-yl)-5-(4-chloro-2-methyl-2H-indazol-5-yl)-3-methyl-3,7-dihydro-4H-pyrrolo[2,3-d]pyrimidin-4-one], the IC50 against SHP2 (setting [2]) is 33 nM; in experiment [1] (setting [3]) it was 0.42 µM.
For `Cn1cc2c(Cl)c(-c3c[nH]c4nc(N5CC6CCC5CN6)n(C)c(=O)c34)ccc2n1` (stereo not shown) [Example 32, 2-(2,5-diazabicyclo[2.2.2]octan-2-yl)-5-(4-chloro-2-methyl-2H-indazol-5-yl)-3-methyl-3,7-dihydro-4H-pyrrolo[2,3-d]pyrimidin-4-one], the values for the IC50 (against SHP2 (setting [2]); in experiment [1] (setting [3])) were 17 nM and 0.92 µM, respectively.
Turning to `Cn1nc2ccc(-c3n[nH]c4nc(N5[C@@H]6CC[C@H]5C[C@@](C)(N)C6)n(C)c(=O)c34)c(Cl)c2c1Cl` [Example 161, 6-(endo-3-amino-3-methyl-8-azabicyclo[3.2.1]octan-8-yl)-3-(3,4-dichloro-2-methyl-2H-indazol-5-yl)-5-methyl-1,5-dihydro-4H-pyrazolo[3,4-d]pyrimidin-4-one], the IC50 on SHP2 (Table 20) came to 12 nM; in experiment [1] (setting [4]) it was 0.26 µM.
Turning to `Cn1cc2c(Cl)c(-c3c[nH]c4nc(N5[C@@H]6CCC[C@H]5C[C@@H](N)C6)n(C)c(=O)c34)ccc2n1` [Example 37, 2-(endo-3-amino-9-azabicyclo[3.3.1]nonan-9-yl)-5-(4-chloro-2-methyl-2H-indazol-5-yl)-3-methyl-3,7-dihydro-4H-pyrrolo[2,3-d]pyrimidin-4-one], the concentration for half-maximal inhibition (IC50) was found to be 12 nM against SHP2 (setting [2]) and 0.97 µM in experiment [1] (setting [3]).
In the case of `CCn1cc2c(Cl)c(-c3c[nH]c4nc(N5CCC6(CC5)COC[C@H]6N)n(C)c(=O)c34)ccc2n1` [Example 12, (S)-2-(4-amino-2-oxa-8-azaspiro[4.5]decan-8-yl)-5-(4-chloro-2-ethyl-2H-indazol-5-yl)-3-methyl-3,7-dihydro-4H-pyrrolo[2,3-d]pyrimidin-4-one], the IC50 at SHP2 (setting [2]) is 11 nM; in experiment [1] (setting [3]), 0.12 µM.
The matching figures for `CN[C@@H]1C[C@@H]2CC[C@H]1N2c1nc2[nH]nc(-c3ccc4ncsc4c3Cl)c2c(=O)n1C` [Example 123, 3-(7-chlorobenzo[d]thiazol-6-yl)-5-methyl-6-((1R,2R,4S)-2-(methylamino)-7-azabicyclo[2.2.1]heptan-7-yl)-1,5-dihydro-4H-pyrazolo[3,4-d]pyrimidin-4-one]: 18 nM and 0.17 µM.
On the same counts, the results for `CCn1cc2c(Cl)c(-c3c[nH]c4nc(N5[C@H]6CC[C@@H]5[C@H](NC)C6)n(C)c(=O)c34)ccc2n1` [Example 98, 5-(4-chloro-2-ethyl-2H-indazol-5-yl)-3-methyl-2-((1R,2R,4S)-2-(methylamino)-7-azabicyclo[2.2.1]heptan-7-yl)-3,7-dihydro-4H-pyrrolo[2,3-d]pyrimidin-4-one] are 10 nM and 0.19 µM.
On the same counts, the results for `Cn1c(N2C3CCCC2CNC3)nc2[nH]cc(-c3ccc4ncsc4c3Cl)c2c1=O` [Example 108, 2-(3,9-diazabicyclo[3.3.1]nonan-9-yl)-5-(7-chlorobenzo[d]thiazol-6-yl)-3-methyl-3,7-dihydro-4H-pyrrolo[2,3-d]pyrimidin-4-one] are 4 nM and 0.09 µM.
Regarding `Cn1cc2c(Cl)c(-c3c[nH]c4nc(N5C6CNCC5C6)n(C)c(=O)c34)ccc2n1` [Example 29, 2-(3,6-diazabicyclo[3.1.1]heptan-6-yl)-5-(4-chloro-2-methyl-2H-indazol-5-yl)-3-methyl-3,7-dihydro-4H-pyrrolo[2,3-d]pyrimidin-4-one], the IC50 was found to be 220 nM against SHP2 (setting [2]) and 2.4 µM in experiment [1] (setting [3]).
Regarding `Cn1cc2c(Cl)c(-c3c[nH]c4nc(N5CC[C@](C)(N)C5)n(C)c(=O)c34)ccc2n1` [Example 54, (S)-2-(3-amino-3-methylpyrrolidin-1-yl)-5-(4-chloro-2-methyl-2H-indazol-5-yl)-3-methyl-3,7-dihydro-4H-pyrrolo[2,3-d]pyrimidin-4-one], the 50% inhibitory concentration (IC50) is 110 nM on SHP2 (setting [2]) and 1.8 µM in experiment [1] (setting [3]).
For the molecule `Cc1c2c(Cl)c(-c3c[nH]c4nc(N5[C@H]6CC[C@@H]5[C@H](N)C6)n(C)c(=O)c34)ccc2nn1C` [Example 94, 2-((1R,2R,4S)-2-amino-7-azabicyclo[2.2.1]heptan-7-yl)-5-(4-chloro-2,3-dimethyl-2H-indazol-5-yl)-3-methyl-3,7-dihydro-4H-pyrrolo[2,3-d]pyrimidin-4-one], the half-maximal inhibitory concentration (IC50) against SHP2 (setting [2]) is 5 nM; in experiment [1] (setting [3]) it was 0.072 µM.
